Experimental data: US12342823B2, “Active compound combinations having insecticidal/acaricidal properties” (Bayer Aktiengesellschaft, priority 2018, dated 2025)

Tested on: green peach aphid (Myzus persicae)
Assay: Myzus persicae - spray test on cabbage leaves
Type: in vivo
Conditions: mortality, 1600 ppm, spray on infested cabbage leaves
Experimental: The expected efficacy of a given combination of two compounds is calculated as follows (see Colby, S.R., “Calculating Synergistic and antagonistic Responses of Herbicide Combinations”, Weeds 15, pp. 20-22, 1967):
If • X is the efficacy expressed in % mortality of the untreated control for test compound A at a concentration of m ppm or m g/ha, • Y is the efficacy expressed in % mortality of the untreated control for test compound B at a concentration of n ppm or n g/ha, • E is the efficacy expressed in % mortality of the untreated control using the mixture of A and B at m and n ppm respectively m and n g/ha, • then is
If the observed insecticidal efficacy of the combination is higher than the one calculated as “E”, then the combination of the two compounds is more than additive, i.e., there is a synergistic effect.
Myzus persicae—Spray Test
• Solvent: 7 parts by weight of dimethylformamide • Emulsifier: alkylaryl polyglycol ether
To produce a suitable preparation of active compound, 1 part by weight of active compound is mixed with the stated amount of solvent and is diluted with water, containing an emulsifier concentration of 1000 ppm, to the desired concentration. […]
After the specified period of time mortality in % is determined. […] The mortality values determined thus are recalculated using the Colby-formula (see sheet 1).

## C=C(C)[C@H]1CC=C(C)CC1 [(R)-(+)-limonene 97%, (R)-(+)-limonene]
  Efficacy in % after 6 days: 0%
